Key:
Aromatase = target: T1, Aromatase (Homo sapiens, UniProt P11511); assay: Inhibition of human aromatase coexpressed with P450 reductase by fluorimetry
T1 sequence (P11511 whole entry): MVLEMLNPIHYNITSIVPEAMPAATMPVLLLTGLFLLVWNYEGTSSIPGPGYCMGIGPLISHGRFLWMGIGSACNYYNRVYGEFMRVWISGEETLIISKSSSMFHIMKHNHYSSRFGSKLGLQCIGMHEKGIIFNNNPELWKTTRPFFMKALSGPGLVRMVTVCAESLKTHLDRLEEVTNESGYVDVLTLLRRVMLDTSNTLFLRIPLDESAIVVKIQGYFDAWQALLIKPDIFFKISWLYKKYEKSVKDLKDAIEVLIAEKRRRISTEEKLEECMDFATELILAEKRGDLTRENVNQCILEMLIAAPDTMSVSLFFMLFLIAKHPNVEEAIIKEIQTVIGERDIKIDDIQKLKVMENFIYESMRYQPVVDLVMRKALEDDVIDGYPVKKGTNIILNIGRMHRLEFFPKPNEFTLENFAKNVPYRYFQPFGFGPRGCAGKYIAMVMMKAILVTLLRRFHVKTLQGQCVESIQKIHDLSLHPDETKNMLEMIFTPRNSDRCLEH

aromatase (CYP19) = target: T2, aromatase (CYP19) (Homo sapiens, UniProt P11511); assay: Inhibition of human aromatase coexpressed with P450 reductase at 1 uM by fluorimetry; details: recombinant human aromatase coexpressed with P450 reductase
T2 sequence (P11511 whole entry): T1 sequence (P11511 whole entry)

Homo sapiens [1] = species on record: Homo sapiens; assay: Selectivity ratio of IC50 for CYP3A4 to IC50 for human aromatase
Homo sapiens [2] = species on record: Homo sapiens; assay: Selectivity ratio of IC50 for CYP2D6 to IC50 for human aromatase
Homo sapiens [3] = species on record: Homo sapiens; assay: Selectivity ratio of IC50 for CYP2C9 to IC50 for human aromatase

| Compound | IC50 (Aromatase) [nM] | inhibition at 1 µM (aromatase (CYP19)) [%] | also measured |
| --- | --- | --- | --- |
| N#Cc1ccc(Oc2ccncc2)cc1 |  | 53 |  |
| N#Cc1ccc(Oc2cccnc2)cc1 | 289 | 70 |  |
| N#Cc1ccc(Oc2cccnc2)cc1F |  | 15 |  |
| N#Cc1ccc(Oc2cccnc2)c(F)c1 |  | 52 |  |
| N#Cc1ccc(Oc2cccnc2)cc1NC1CCCCC1 |  | 33 |  |
| N#Cc1ccc(Cn2cncn2)cc1 |  | 88 |  |
| N#Cc1ccc(Oc2cccnc2)c(Oc2cccc(Cl)c2)c1 | 229 | 89 |  |
| N#Cc1ccc(Oc2cccnc2)c(Oc2cccnc2)c1 |  | 82 |  |
| N#Cc1ccc(Oc2cccnc2)cc1C#N | 5030 | 27 |  |
| N#Cc1ccc(Oc2cccnn2)cc1 |  | 1 |  |
| CN1CCN(c2cc(Oc3cccnc3)ccc2C#N)CC1 |  | 8 |  |

Continued, in another order:

| IC50 (Aromatase) [nM] | inhibition at 1 µM (aromatase (CYP19)) [%] | Compound | also measured |
| --- | --- | --- | --- |
| 114 | 97 | N#Cc1ccc(-n2ccc3ccncc32)cc1Oc1ccccc1 |  |
| 304 | 81 | N#Cc1ccc(Oc2cccnc2)cc1Oc1cccnc1 |  |
| 986 | 58 | N#Cc1ccc(Oc2cccnc2)cc1NCc1ccccc1 |  |
| 523 | 85 | Clc1ccc(-n2ccc3ccncc32)cc1 |  |
|  | 78 | N#Cc1ccc(Oc2cccnc2)cc1Oc1ccccc1 |  |
|  | 56 | Brc1ccc(-n2ccc3ccncc32)cc1 |  |
|  | 25 | N#Cc1ccc(Oc2cccnc2)cc1Oc1cccc(Cl)c1 |  |
|  | 60 | NC(=O)c1ccc(-n2ccc3ccncc32)cc1 |  |
|  | > 99 | Cc1cc(-n2ccc3ccncc32)ccc1C#N |  |
|  | 26 | Ic1ccc(-n2ccc3ccncc32)cc1 |  |
| 93 | 94 | N#Cc1ccc(-n2ccc3ccncc32)cc1 | Ratio IC50 (Homo sapiens [1]): > 200; Ratio IC50 (Homo sapiens [2]): > 200; Ratio IC50 (Homo sapiens [3]): > 200 |
| 59 | 96 | Cc1cc(-n2ccc3ccncc32)ccc1Cl |  |
|  | 84 | COc1ccc(Oc2cc(Oc3cccnc3)ccc2C#N)cc1 |  |
